Measurements as given in ChEMBL document CHEMBL1201862, “PubChem BioAssay data set” (2004).
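Results reflect a 48-hour exposure of cells in 96-well plates to compound at five concentrations. Here, GI50 denotes the concentration required for 50% inhibition of growth.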 The source made the active and inactive calls. Cut-off read from the data, not from the text of the source: active = GI50 up to about 1.1 µM and inactive = higher.

How the values were obtained:
Assay in all cases: inhibition of tumour cell growth, NCI panel, 48 h
[1] = test system: A549
[2] = test system: Malme-3M
[3] = test system: HT-29
[4] = test system: OVCAR-3
[5] = test system: UACC-257
[6] = test system: KM12
[7] = test system: M14
[8] = test system: HCT-116
[9] = test system: TK-10
[10] = test system: OVCAR-8
[11] = test system: EKVX
[12] = test system: CAKI-1
[13] = test system: NCI-H460
[14] = test system: UO-31
[15] = test system: CCRF-CEM
[16] = test system: NCI-H226
[17] = test system: SNB-75
[18] = test system: HOP-92

Row | Structure (SMILES) | GI50 [1] | GI50 [2] | GI50 [3] | GI50 [4] | GI50 [5] | GI50 [6] | GI50 [7] | GI50 [8] | GI50 [9] | GI50 [10] | GI50 [11] | GI50 [12] | GI50 [13] | GI50 [14] | GI50 [15] | GI50 [16] | GI50 [17] | GI50 [18]
1 | CCc1ccccc1NC(=O)/C(=N/O)C(C)=O | > 100 µM (inactive) | > 100 µM (inactive) | > 100 µM (inactive) | > 100 µM (inactive) | > 100 µM (inactive) | > 100 µM (inactive) | > 100 µM (inactive) | > 100 µM (inactive) | > 100 µM (inactive) | > 100 µM (inactive) | > 100 µM (inactive) | > 100 µM (inactive) | > 100 µM (inactive) | > 100 µM (inactive) | > 100 µM (inactive) | 62.1 µM (inactive) | > 100 µM (inactive) | –
2 | CC1CCCP(=O)(c2ccccc2)CCC1 (stereo not given) | > 100 µM (inactive) | > 100 µM (inactive) | > 100 µM (inactive) | > 100 µM (inactive) | > 100 µM (inactive) | > 100 µM (inactive) | > 100 µM (inactive) | – | > 100 µM (inactive) | > 100 µM (inactive) | > 100 µM (inactive) | > 100 µM (inactive) | > 100 µM (inactive) | > 100 µM (inactive) | > 100 µM (inactive) | – | > 100 µM (inactive) | –
3 | O=C(Cc1nc2ccccc2s1)C(=O)Nc1cccc(Cl)c1 | > 100 µM (inactive) | > 100 µM (inactive) | > 100 µM (inactive) | > 100 µM (inactive) | > 100 µM (inactive) | > 100 µM (inactive) | > 100 µM (inactive) | > 100 µM (inactive) | > 100 µM (inactive) | > 100 µM (inactive) | > 100 µM (inactive) | > 100 µM (inactive) | – | > 100 µM (inactive) | > 100 µM (inactive) | > 100 µM (inactive) | 48.9 µM (inactive) | > 100 µM (inactive)
4 | COc1cc(CCCC(O)COc2cccc3c2C2(O)CCCCCC32)cc(OC)c1 (stereo not given) | 16.1 µM (inactive) | 16 µM (inactive) | 7.26 µM (inactive) | – | 15.6 µM (inactive) | 17.2 µM (inactive) | 17.5 µM (inactive) | 17.7 µM (inactive) | 14.1 µM (inactive) | 19.1 µM (inactive) | 16 µM (inactive) | 20.8 µM (inactive) | 17.6 µM (inactive) | 15.4 µM (inactive) | 25.8 µM (inactive) | 16.2 µM (inactive) | 12.1 µM (inactive) | 4.75 µM (inactive)
5 | Cc1cccc(C)c1NC(=O)C1C(=O)N(c2c(C)cccc2C)C(=O)/C1=N\N (stereo not given) | > 100 µM (inactive) | > 100 µM (inactive) | > 100 µM (inactive) | > 100 µM (inactive) | > 100 µM (inactive) | – | > 100 µM (inactive) | > 100 µM (inactive) | > 100 µM (inactive) | > 100 µM (inactive) | > 100 µM (inactive) | > 100 µM (inactive) | – | > 100 µM (inactive) | > 100 µM (inactive) | > 100 µM (inactive) | > 100 µM (inactive) | > 100 µM (inactive)
6 | CN(CN1C(=O)C2Cc3ccccc3CN2C1=O)c1ccccn1 (stereo not given) | > 100 µM (inactive) | > 100 µM (inactive) | – | > 100 µM (inactive) | – | > 100 µM (inactive) | > 100 µM (inactive) | – | > 100 µM (inactive) | > 100 µM (inactive) | – | > 100 µM (inactive) | > 100 µM (inactive) | > 100 µM (inactive) | > 100 µM (inactive) | > 100 µM (inactive) | – | –
7 | CCOC(=N)CC(=O)NC(C)c1ccccc1 (stereo not given) | > 100 µM (inactive) | > 100 µM (inactive) | > 100 µM (inactive) | > 100 µM (inactive) | > 100 µM (inactive) | > 100 µM (inactive) | > 100 µM (inactive) | > 100 µM (inactive) | > 100 µM (inactive) | > 100 µM (inactive) | > 100 µM (inactive) | > 100 µM (inactive) | > 100 µM (inactive) | > 100 µM (inactive) | > 100 µM (inactive) | > 100 µM (inactive) | > 100 µM (inactive) | –
8 | CC(=O)OCC1OC(OC2C(COC(C)=O)OC(Sc3ccccc3C)C(OC(C)=O)C2OC(C)=O)C(OC(C)=O)C(OC(C)=O)C1OC(C)=O (stereo not given) | > 100 µM (inactive) | > 100 µM (inactive) | > 100 µM (inactive) | – | > 100 µM (inactive) | > 100 µM (inactive) | > 100 µM (inactive) | > 100 µM (inactive) | > 100 µM (inactive) | – | > 100 µM (inactive) | > 100 µM (inactive) | > 100 µM (inactive) | > 100 µM (inactive) | – | > 100 µM (inactive) | > 100 µM (inactive) | 55 µM (inactive)
9 | N=C(c1ccccc1)N(c1ccccc1)c1ccccc1 | > 100 µM (inactive) | 23.4 µM (inactive) | 42.5 µM (inactive) | – | > 100 µM (inactive) | 25.2 µM (inactive) | > 100 µM (inactive) | 40.5 µM (inactive) | > 100 µM (inactive) | > 100 µM (inactive) | 93.3 µM (inactive) | > 100 µM (inactive) | 87.5 µM (inactive) | 68.5 µM (inactive) | – | 23.1 µM (inactive) | > 100 µM (inactive) | < 0.01 µM (active)
10 | CCOC(=O)/C(C(C)=O)=C1/N[C@H](C(=O)OCC)CS1 | > 100 µM (inactive) | > 100 µM (inactive) | > 100 µM (inactive) | > 100 µM (inactive) | > 100 µM (inactive) | > 100 µM (inactive) | > 100 µM (inactive) | > 100 µM (inactive) | – | > 100 µM (inactive) | > 100 µM (inactive) | > 100 µM (inactive) | > 100 µM (inactive) | > 100 µM (inactive) | > 100 µM (inactive) | > 100 µM (inactive) | > 100 µM (inactive) | –
11 | CC(=O)O[C@@]1(C)[C@@H](C)C(=O)O[C@@H]2CCN3CC=C(COC(=O)[C@]1(C)O)[C@H]23 | > 100 µM (inactive) | > 100 µM (inactive) | > 100 µM (inactive) | > 100 µM (inactive) | > 100 µM (inactive) | > 100 µM (inactive) | > 100 µM (inactive) | > 100 µM (inactive) | > 100 µM (inactive) | > 100 µM (inactive) | – | > 100 µM (inactive) | > 100 µM (inactive) | > 100 µM (inactive) | > 100 µM (inactive) | > 100 µM (inactive) | 41 µM (inactive) | > 100 µM (inactive)
12 | O=CC1=CCCC2(C1)OCCO2 | > 100 µM (inactive) | > 100 µM (inactive) | > 100 µM (inactive) | > 100 µM (inactive) | > 100 µM (inactive) | > 100 µM (inactive) | > 100 µM (inactive) | > 100 µM (inactive) | > 100 µM (inactive) | > 100 µM (inactive) | > 100 µM (inactive) | > 100 µM (inactive) | > 100 µM (inactive) | > 100 µM (inactive) | > 100 µM (inactive) | – | 4.95 µM (inactive) | > 100 µM (inactive)
13 | CC1(C)N=C(c2ccccn2)C(c2ccccn2)=NC1(C)C | > 100 µM (inactive) | > 100 µM (inactive) | > 100 µM (inactive) | > 100 µM (inactive) | > 100 µM (inactive) | > 100 µM (inactive) | > 100 µM (inactive) | > 100 µM (inactive) | – | > 100 µM (inactive) | > 100 µM (inactive) | > 100 µM (inactive) | > 100 µM (inactive) | > 100 µM (inactive) | > 100 µM (inactive) | > 100 µM (inactive) | – | > 100 µM (inactive)
14 | CCOC(=N)CC(=O)Nc1cccc(Cl)c1 | > 100 µM (inactive) | 31.7 µM (inactive) | > 100 µM (inactive) | > 100 µM (inactive) | > 100 µM (inactive) | > 100 µM (inactive) | > 100 µM (inactive) | > 100 µM (inactive) | > 100 µM (inactive) | > 100 µM (inactive) | > 100 µM (inactive) | > 100 µM (inactive) | > 100 µM (inactive) | > 100 µM (inactive) | > 100 µM (inactive) | > 100 µM (inactive) | > 100 µM (inactive) | –
15 | COc1ccccc1NC(=O)CC(=O)N1N=C(c2ccccc2)C(/N=N/c2ccc(Cl)cc2)C1=O (stereo not given) | 25.1 µM (inactive) | – | 42.7 µM (inactive) | 28.4 µM (inactive) | 65 µM (inactive) | 49.5 µM (inactive) | 59.8 µM (inactive) | 30.1 µM (inactive) | 27.7 µM (inactive) | 41.8 µM (inactive) | 37.2 µM (inactive) | 19.5 µM (inactive) | 34.8 µM (inactive) | 18.2 µM (inactive) | – | 27.5 µM (inactive) | 19.7 µM (inactive) | –
16 | NC(=O)C(c1ccccc1)N1CCOCC1 (stereo not given) | > 100 µM (inactive) | > 100 µM (inactive) | > 100 µM (inactive) | > 100 µM (inactive) | > 100 µM (inactive) | > 100 µM (inactive) | > 100 µM (inactive) | > 100 µM (inactive) | > 100 µM (inactive) | > 100 µM (inactive) | – | > 100 µM (inactive) | > 100 µM (inactive) | > 100 µM (inactive) | > 100 µM (inactive) | > 100 µM (inactive) | > 100 µM (inactive) | > 100 µM (inactive)
17 | [N-]=[N+]=C1C(=O)C2CC3CC1CC2C3 (stereo not given) | > 100 µM (inactive) | > 100 µM (inactive) | > 100 µM (inactive) | > 100 µM (inactive) | > 100 µM (inactive) | > 100 µM (inactive) | > 100 µM (inactive) | > 100 µM (inactive) | > 100 µM (inactive) | > 100 µM (inactive) | > 100 µM (inactive) | > 100 µM (inactive) | > 100 µM (inactive) | > 100 µM (inactive) | > 100 µM (inactive) | > 100 µM (inactive) | > 100 µM (inactive) | > 100 µM (inactive)
